Measurements: ChEMBL document CHEMBL1201862, “PubChem BioAssay data set” (2004)
Each block holds one compound with its values, some of them ahead of it. Activity calls are given as the source filed them.

How the values were obtained:
[1] = reduced cellular PGC1a acetyl-lysine signal – cell-based, cherry-picked samples, dose response (AID 720514); format: functional;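 note: potency may reflect raised or lowered acetylation signal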
[2] = DRD fibroblast viability loss – cell-based, non-viral oncogenic, luminescence, dose response (AID 1934); format: functional; settings: Homo sapiens
BJ [3] = assay: BJ-TERT-LT-ST fibroblast viability loss – cell-based, RAS-independent, luminescence, dose response (AID 1935); format: functional; settings: Homo sapiens;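 note: BJ fibroblasts immortalized with TERT plus LT and ST oncogenes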
BJ [4] = assay: cells; format: functional, cell-based; settings: Homo sapiens
BJ [5] = assay: growth inhibition of engineered Ras-driven BJ cells – cell-based, alamar blue fluorescence, cherrypicked samples, dose response (AID 2631); format: functional; settings: Homo sapiens;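 note: confirmatory dose-response assay in RAS-dependent BJ fibroblasts engineered with TERT, LT and ST, with cytotoxicity read by fluorescence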
BJ [6] = assay: BJ-TERT fibroblast viability loss – cell-based, RAS-independent, luminescence, dose response (AID 1933); format: functional; settings: Homo sapiens
Fatty acid synthase [7] = target: T1, Fatty acid synthase (Homo sapiens, UniProt P49327); assay: inhibition of human FAS-TE enzyme activity – biochemical, endpoint fluorescence intensity, uHTS hits, dose response (AID 624327); format: functional;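 note: fluorescence from hydrolysis of an O-methyl fluorescein acyl ester substrate by the enzyme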
T1 sequence (P49327 whole entry): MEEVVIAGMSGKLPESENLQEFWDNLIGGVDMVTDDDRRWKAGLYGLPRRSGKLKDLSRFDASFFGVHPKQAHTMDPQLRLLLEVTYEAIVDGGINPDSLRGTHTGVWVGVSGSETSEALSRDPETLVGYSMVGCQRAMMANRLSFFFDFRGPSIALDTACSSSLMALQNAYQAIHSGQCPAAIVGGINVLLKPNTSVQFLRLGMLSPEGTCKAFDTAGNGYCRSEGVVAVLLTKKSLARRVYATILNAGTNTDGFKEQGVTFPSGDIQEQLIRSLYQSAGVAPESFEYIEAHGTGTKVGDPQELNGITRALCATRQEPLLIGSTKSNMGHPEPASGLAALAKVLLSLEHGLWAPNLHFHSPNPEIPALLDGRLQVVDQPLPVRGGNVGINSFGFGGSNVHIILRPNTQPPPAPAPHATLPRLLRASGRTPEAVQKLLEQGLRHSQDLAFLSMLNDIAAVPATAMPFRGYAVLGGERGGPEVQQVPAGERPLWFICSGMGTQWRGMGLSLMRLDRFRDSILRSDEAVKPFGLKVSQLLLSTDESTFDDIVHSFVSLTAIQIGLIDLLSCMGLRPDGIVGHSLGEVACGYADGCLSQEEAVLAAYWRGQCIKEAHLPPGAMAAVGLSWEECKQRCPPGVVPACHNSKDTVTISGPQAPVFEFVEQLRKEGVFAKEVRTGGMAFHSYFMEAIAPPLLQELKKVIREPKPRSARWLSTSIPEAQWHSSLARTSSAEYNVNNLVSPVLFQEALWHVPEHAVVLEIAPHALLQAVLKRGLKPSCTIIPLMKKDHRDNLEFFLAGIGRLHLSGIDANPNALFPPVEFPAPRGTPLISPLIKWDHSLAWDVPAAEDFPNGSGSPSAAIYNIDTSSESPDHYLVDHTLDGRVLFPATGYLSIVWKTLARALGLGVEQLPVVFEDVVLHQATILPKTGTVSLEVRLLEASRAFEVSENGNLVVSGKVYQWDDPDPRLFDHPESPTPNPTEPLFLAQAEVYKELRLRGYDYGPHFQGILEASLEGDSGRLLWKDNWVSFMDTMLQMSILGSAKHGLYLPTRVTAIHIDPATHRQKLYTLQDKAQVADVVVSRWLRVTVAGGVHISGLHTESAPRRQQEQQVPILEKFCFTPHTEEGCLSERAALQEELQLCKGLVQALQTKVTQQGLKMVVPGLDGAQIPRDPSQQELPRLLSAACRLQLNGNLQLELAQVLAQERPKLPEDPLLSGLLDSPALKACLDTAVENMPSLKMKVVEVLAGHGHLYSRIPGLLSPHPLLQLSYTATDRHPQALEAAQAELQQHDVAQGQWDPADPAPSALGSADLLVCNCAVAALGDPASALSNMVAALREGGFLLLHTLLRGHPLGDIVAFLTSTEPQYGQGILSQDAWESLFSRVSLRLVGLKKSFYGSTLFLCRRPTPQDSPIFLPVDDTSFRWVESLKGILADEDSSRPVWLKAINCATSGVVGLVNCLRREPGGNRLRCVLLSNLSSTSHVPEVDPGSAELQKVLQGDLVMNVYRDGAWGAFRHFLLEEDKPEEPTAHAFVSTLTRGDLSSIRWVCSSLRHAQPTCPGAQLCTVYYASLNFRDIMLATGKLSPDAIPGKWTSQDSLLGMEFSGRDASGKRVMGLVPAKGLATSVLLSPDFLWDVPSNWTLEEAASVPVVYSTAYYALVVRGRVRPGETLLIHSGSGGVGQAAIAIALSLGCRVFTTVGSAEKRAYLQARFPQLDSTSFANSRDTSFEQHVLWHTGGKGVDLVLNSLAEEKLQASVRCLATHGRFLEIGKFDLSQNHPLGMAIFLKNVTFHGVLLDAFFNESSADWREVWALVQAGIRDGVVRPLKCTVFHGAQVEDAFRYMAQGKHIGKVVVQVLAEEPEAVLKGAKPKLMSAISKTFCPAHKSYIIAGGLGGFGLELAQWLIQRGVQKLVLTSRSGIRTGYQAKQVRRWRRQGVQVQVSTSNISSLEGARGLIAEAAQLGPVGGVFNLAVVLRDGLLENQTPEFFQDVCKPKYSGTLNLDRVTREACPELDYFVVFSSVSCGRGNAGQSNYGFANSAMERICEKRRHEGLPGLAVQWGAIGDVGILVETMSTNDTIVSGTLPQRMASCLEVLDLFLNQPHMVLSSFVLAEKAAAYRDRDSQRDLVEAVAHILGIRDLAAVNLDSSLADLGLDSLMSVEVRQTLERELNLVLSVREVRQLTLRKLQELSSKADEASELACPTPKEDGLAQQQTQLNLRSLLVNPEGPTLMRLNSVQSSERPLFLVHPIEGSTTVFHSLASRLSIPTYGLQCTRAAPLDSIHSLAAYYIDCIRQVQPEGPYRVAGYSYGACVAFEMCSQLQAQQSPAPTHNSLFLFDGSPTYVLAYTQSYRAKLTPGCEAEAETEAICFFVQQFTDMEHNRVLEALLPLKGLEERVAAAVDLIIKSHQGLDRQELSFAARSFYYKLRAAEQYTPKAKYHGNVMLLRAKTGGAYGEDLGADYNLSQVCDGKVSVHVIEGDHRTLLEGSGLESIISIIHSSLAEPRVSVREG

Fatty acid synthase [8] = target: T1, Fatty acid synthase; assay: inhibition of human FAS-TE enzyme activity – biochemical, kinetic fluorescence intensity, dose response (AID 624326); format: functional;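 note: rate of fluorescence rise from hydrolysis of a fluorogenic O-methyl fluorescein ester substrate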
[9] = P. falciparum Dd2 growth inhibitors, dose response, SYBR Green, cherry-picked samples (AID 1159567); format: functional, cell-based
Caspase-3 = target: T2, Caspase-3 (Homo sapiens, UniProt P42574); format: functional;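 note: Dose-response selectivity test against caspase-3 for candidate inhibitors of sentrin-specific proteases (SENPs)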
T2 sequence (P42574 whole entry): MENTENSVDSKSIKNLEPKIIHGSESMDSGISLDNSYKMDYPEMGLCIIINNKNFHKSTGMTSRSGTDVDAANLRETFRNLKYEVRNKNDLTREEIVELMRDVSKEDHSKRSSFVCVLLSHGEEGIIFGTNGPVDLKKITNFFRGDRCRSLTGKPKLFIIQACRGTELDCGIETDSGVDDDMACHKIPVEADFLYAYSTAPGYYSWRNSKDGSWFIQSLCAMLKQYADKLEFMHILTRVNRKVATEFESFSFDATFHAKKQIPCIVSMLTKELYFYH

[10] = target: T3, Sentrin-specific protease 6 (Homo sapiens, UniProt Q9GZR1); format: functional;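 note: Luminescence-based dose-response confirmatory assay of SENP6 inhibition, following up an ultra-high-throughput screen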
T3 sequence (Q9GZR1 whole entry): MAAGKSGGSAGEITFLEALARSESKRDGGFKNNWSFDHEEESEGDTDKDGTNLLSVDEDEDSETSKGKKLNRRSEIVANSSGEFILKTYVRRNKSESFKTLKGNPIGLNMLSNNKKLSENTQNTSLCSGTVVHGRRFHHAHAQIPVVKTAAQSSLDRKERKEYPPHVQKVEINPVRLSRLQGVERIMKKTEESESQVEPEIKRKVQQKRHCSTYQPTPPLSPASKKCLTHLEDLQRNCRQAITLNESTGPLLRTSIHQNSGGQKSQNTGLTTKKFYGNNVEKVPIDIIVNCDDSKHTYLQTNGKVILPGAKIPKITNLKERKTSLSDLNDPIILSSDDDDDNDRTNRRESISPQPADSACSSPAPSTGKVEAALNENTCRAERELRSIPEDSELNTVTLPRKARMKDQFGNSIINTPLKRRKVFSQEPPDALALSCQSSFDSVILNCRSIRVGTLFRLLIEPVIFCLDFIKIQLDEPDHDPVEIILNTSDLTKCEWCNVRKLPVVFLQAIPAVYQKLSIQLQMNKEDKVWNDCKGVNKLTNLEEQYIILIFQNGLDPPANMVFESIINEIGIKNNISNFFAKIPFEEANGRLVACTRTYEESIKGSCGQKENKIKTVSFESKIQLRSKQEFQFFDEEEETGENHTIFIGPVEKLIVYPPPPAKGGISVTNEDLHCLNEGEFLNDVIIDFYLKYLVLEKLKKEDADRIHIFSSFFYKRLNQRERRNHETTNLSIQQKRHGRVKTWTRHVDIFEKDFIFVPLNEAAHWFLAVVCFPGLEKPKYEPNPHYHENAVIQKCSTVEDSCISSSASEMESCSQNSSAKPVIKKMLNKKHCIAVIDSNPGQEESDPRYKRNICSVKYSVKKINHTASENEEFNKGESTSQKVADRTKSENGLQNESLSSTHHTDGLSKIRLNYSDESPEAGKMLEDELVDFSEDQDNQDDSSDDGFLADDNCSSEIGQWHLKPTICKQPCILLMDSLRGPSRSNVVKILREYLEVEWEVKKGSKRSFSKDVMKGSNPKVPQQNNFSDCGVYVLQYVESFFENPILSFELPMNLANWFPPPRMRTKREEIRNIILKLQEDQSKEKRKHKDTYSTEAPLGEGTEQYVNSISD

[11] = target: T4, Sentrin-specific protease 7 (Homo sapiens, UniProt Q9BQF6); format: functional;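 note: Luminescence-based dose-response confirmation of ultra-high-throughput screening hits, measuring inhibition of SENP7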
T4 sequence (Q9BQF6 whole entry): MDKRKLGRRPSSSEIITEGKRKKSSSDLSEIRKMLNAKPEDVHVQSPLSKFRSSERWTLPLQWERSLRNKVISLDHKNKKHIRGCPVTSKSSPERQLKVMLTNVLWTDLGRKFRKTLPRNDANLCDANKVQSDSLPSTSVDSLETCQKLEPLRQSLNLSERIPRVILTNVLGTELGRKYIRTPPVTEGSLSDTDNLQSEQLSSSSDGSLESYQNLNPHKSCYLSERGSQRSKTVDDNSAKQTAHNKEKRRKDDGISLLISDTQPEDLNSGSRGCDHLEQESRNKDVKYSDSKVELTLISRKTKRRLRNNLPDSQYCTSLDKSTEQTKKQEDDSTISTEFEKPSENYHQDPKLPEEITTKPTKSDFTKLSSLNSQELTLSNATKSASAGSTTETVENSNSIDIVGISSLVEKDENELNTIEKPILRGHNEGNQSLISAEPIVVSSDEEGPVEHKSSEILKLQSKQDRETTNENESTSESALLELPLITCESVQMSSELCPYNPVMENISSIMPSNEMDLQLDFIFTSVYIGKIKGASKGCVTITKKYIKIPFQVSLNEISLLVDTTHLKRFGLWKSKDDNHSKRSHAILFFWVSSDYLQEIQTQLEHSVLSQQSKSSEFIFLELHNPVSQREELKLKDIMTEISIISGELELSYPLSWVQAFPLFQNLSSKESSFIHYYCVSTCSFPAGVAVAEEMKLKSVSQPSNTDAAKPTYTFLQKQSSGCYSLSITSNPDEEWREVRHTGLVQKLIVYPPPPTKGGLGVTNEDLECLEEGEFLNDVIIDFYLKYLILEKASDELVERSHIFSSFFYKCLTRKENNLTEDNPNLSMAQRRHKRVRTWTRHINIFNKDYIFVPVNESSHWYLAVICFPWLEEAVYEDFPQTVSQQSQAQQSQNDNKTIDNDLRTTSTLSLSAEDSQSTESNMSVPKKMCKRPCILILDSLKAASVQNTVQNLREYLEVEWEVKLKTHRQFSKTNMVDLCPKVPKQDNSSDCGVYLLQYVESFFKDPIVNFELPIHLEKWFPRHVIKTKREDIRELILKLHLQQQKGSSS

[12] = target: T5, Sentrin-specific protease 8 (Homo sapiens, UniProt Q96LD8); format: functional;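 note: luminescence read-out of SENP8 inhibition, dose-response confirmation following an ultra-high-throughput screen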
T5 sequence (Q96LD8 whole entry): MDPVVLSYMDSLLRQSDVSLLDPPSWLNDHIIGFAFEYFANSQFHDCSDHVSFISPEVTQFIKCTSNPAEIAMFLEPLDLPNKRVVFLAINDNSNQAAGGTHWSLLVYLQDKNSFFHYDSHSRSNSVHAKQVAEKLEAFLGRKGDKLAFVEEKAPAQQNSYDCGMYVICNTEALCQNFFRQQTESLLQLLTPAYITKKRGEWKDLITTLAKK

[13] = viability loss in HEK293 cells – cell-based, plate reader, cherry-picked samples, cytotoxicity control, dose response (AID 743446); format: functional
[14] = A549 cell cytotoxicity, dose response, cytotoxicity control, plate reader, cherry-pick, antagonist series (AID 743412); format: functional, cell-based
[15] = toxicity toward HepG2 liver cells – cell-based, plate reader, cherry-pick, antagonist series, cytotoxicity control, dose response (AID 743416); format: functional
[16] = blockade of melanocortin 4 receptor signaling – cell-based, plate reader, cherry pick, counter-screen for LGR2 antagonist project, dose response (AID 743444); format: functional;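 note: transfected HEK 293 cells stimulated with alpha-MSH peptide; potency of inhibitors of the alpha-MSH evoked signal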
[17] = target: T6, Microphthalmia-associated transcription factor (Homo sapiens, UniProt O75030); assay: reducers of TRPM1 reporter luminescence, concentration series – cell-based, SK-MEL-5, cherry-picked, set 3, MITF inhibitor project, dose response (AID 493073); format: functional;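 note: SK-MEL-5 melanoma cells with luciferase driven by the MITF target TRPM1 promoter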
T6 sequence (O75030 whole entry): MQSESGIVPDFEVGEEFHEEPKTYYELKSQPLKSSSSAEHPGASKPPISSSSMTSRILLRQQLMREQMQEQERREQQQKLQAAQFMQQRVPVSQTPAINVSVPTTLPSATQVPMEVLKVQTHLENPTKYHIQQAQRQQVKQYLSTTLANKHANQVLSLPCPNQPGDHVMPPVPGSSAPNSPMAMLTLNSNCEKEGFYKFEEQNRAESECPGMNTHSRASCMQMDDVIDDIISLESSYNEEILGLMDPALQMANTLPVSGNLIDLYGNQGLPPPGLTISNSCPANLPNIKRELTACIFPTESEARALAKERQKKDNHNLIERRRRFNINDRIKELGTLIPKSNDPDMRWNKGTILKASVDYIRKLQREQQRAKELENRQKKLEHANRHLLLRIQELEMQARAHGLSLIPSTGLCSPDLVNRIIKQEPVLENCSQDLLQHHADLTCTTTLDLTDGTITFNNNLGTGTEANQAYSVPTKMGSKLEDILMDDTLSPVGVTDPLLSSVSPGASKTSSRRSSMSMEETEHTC

[18] = blockers of bursicon-stimulated LGR2 cAMP reporter – cell-based, HEK293, CRE-luciferase reporter, cherry pick, set 2, dose response (AID 743343); format: functional;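 note: transfected cells were stimulated with diluted bursicon conditioned medium after compound addition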

Structure (SMILES): COc1ccc(-c2cnc3c(c2)C(=O)N([C@H](C)CO)C[C@H](C)[C@@H](CN(C)C(=O)C2CCC2)O3)cc1
AC50 [1]: 25.8 µM (active)

Structure (SMILES): O=C(/C=C/c1ccc(F)cc1)NNC(=O)CCN1CCN(Cc2ccccc2)CC1
EC50 [2]: 2.92 µM (active)
EC50 (BJ [3]): 2.15 µM (active)
EC50 (BJ [4]): 3.53 µM (active)
EC50 (BJ [5]): > 133 µM (inactive)
EC50 (BJ [6]): 19.1 µM (active)

Structure (SMILES): CC1=C(C(=O)OCC(Br)(Br)Br)C(c2cccc([N+](=O)[O-])c2)NC(=O)N1CCCC(=O)O (configuration not stated)
IC50 (Fatty acid synthase [7]): 7.69 µM (active)
IC50 (Fatty acid synthase [8]): 5.05 µM (active)

Structure (SMILES): C[C@@H]1CN([C@H](C)CO)C(=O)c2cc(-c3ccc(C#N)cc3)cnc2O[C@H]1CN(C)C(=O)Nc1ccc(C(F)(F)F)cc1
AC50 [9]: 21.2 µM (active)

Structure (SMILES): CC(C)(C)[S@+]([O-])N1Cc2cc(C(=O)N[C@@H]3CCN(Cc4ccccc4)C3)nc(-c3cccc(-c4ccncc4)c3)c2[C@@H]1CCO
AC50 [9]: 4.68 µM (active)

Structure (SMILES): Cn1nnnc1Sc1ncnc2scc(-c3ccc(C#N)cc3)c12
AC50 [13]: 10.9 µM (active)
AC50 [14]: 7.28 µM (active)
AC50 [15]: 7.68 µM (active)
AC50 [1]: 8.12 µM (active)
AC50 [16]: 3.6 µM (active)
AC50 [17]: 4.98 µM (active)
AC50 [18]: 5.18 µM (active)

Continued, in another order:

IC50 (Fatty acid synthase [7]): 9.16 µM (active)
IC50 (Fatty acid synthase [8]): 9.62 µM (active)
Structure (SMILES): COc1ccc([N+](=O)[O-])cc1NC(=O)CCC(=O)c1cccs1

IC50 (Fatty acid synthase [7]): 17.2 µM (active)
IC50 (Fatty acid synthase [8]): 18.6 µM (active)
Structure (SMILES): COC(=O)c1ccc(CSc2nc(C(F)F)cc(C)c2C#N)o1

IC50 (Caspase-3): 47 µM (active)
IC50 [10]: 42 µM (active)
IC50 [11]: 7.07 µM (active)
Structure (SMILES): O=C(Nc1cccc(F)c1)c1ccc(-c2ccccc2Cl)o1
IC50 [12]: 53.7 µM (active)

IC50 (Fatty acid synthase [7]): 16.7 µM (active)
IC50 (Fatty acid synthase [8]): 15.5 µM (active)
Structure (SMILES): CCOC(=O)CC(NC(=O)c1cc2ccccc2oc1=O)c1cccc([N+](=O)[O-])c1 (configuration not stated)
